Data as given in patent US10166229B2, “Compounds and methods for the treatment of cancer” (The Board of Trustees of the University of Illinois, priority 2005, dated 2019).

Columns and labels:
procaspase-3 [1] = target: T1, procaspase-3 (Homo sapiens (Human), UniProt P42574); test: In vitro activation of purified procaspase-3 (activation curves, Ac-DEVD-pNA); format: biochemical; details: for EC50: Table 3, read-out: EC50 (μM) for procaspase-3 activation; for Activity (direct activation of purified procaspase-3 in vitro): Table 2
Protocol: Activation curves. […] The plate was read every 2 minutes at 405 nm for 2 hours in a Spectra Max Plus 384 well plate reader. The slope of the linear portion for each well was determined and the fold increase in activation from non-treated control wells was calculated. […]

HL-60 cells [2] = test: Cell death induction IC50 (MTS) in HL-60; format: cell-based, human
HL-60 cell line = test: IC50 of PAC-1 derivatives in HL-60 cell line (Table 5); format: cell-based; details: for Fold better than PAC-1: HL-60 IC50 relative to PAC-1; for IC50: Homo sapiens, HL-60, Table 5
Description: The results are indicated in Table 5 (where L- and R-designations refer to structures shown in the AX and BX series above, respectively).

HL-60 cells [3] = test: Apoptosis induction assay in HL-60 cells, 72 hrs (Table 6); format: cell-based
Protocol: Compounds DX1-DX17 were tested using the HL-60 cell line for the ability to effect apoptosis, and IC50 values were determined. Activity levels of compounds from assays of 72 hrs duration with HL-60 cells are shown in Table 6 and along with structures in FIG. 12.

procaspase-3 [4] = target: T1, procaspase-3; test: Western blot of in vitro procaspase-3 activation by DX compounds; format: biochemical; details: 50 micromolar compound, about 35 nanomolar procaspase-3, 8 hr
Protocol: Certain compounds were also tested for the ability to effect in vitro activation of procaspase-3.

SK-N-SH = test: Cell death IC50 (MTS) in SK-N-SH; format: cell-based; details: etoposide, 24 hours; read-out: IC50 for inducing death, SK-N-SH
[5] = tested on: NCI-H226 lung cancer cell line; test: Cell death IC50 (MTS) in NCI-H226; format: cell-based; details: etoposide, 24 hours; read-out: IC50 for inducing death, NCI-H226
[6] = tested on: Hs 578t breast cancer cell line; test: Cell death IC50 (MTS) in Hs 578t; format: cell-based; details: etoposide, 24 hours; read-out: IC50 for inducing death, Hs 578t
[7] = tested on: CRL-1872 melanoma cell line; test: Cell death IC50 (MTS) in CRL-1872; format: cell-based; details: etoposide, 24 hours; read-out: IC50 for inducing death, CRL-1872
PC-12 = test: Cell death IC50 (MTS) in PC-12; format: cell-based; details: etoposide, 24 hours; read-out: IC50 for inducing death, PC-12
U-937 = test: Cell death IC50 (MTS) in U-937; format: cell-based; details: etoposide, 24 hours; read-out: IC50 for inducing death, U-937
[8] = tested on: B16-F10 melanoma cell line; test: Cell death IC50 (MTS) in B16-F10; format: cell-based; details: etoposide, 24 hours; read-out: IC50 for inducing death, B16-F10
[9] = tested on: UACC-62 melanoma cell line; test: Cell death IC50 (MTS) in UACC-62; format: cell-based; details: etoposide, 24 hours; read-out: IC50 for inducing death, UACC-62
[10] = Homo sapiens, HL-60, Table 3, read-out: IC50 (μM) for death induction in HL-60 cells

T1 sequence (P42574 whole entry): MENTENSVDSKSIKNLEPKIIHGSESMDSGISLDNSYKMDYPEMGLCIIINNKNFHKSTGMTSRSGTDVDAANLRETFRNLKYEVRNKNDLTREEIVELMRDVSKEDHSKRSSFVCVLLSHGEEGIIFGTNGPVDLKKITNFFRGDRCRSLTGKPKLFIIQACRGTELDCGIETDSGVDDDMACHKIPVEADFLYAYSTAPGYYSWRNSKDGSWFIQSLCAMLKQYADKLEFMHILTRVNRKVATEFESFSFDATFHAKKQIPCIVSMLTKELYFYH

For `O=C(CN1CCNCC1)N/N=C/c1ccccc1O`, the EC50 (procaspase-3 [1]) was > 50 µM and the IC50 (HL-60 cells [2]; [10]) was > 100 µM.
For `C/C=N/NC(=O)CN1CCN(Cc2ccccc2)CC1`, the EC50 (procaspase-3 [1]) was > 50 µM and the IC50 (HL-60 cells [2]; [10]) was > 100 µM.
In the case of `CCOC(=O)CN1CCN(Cc2ccccc2)CC1`, the EC50 (procaspase-3 [1]) is reported as > 50 µM and the IC50 (HL-60 cells [2]; [10]) is reported as > 100 µM.
With `CCOC(=O)CN1CCNCC1` the EC50 (procaspase-3 [1]) was > 50 µM and the IC50 (HL-60 cells [2]; [10]) was > 100 µM.
In the case of `c1ccc(CN2CCN(Cc3ccccc3)CC2)cc1`, the EC50 (procaspase-3 [1]) is reported as > 50 µM and the IC50 (HL-60 cells [2]; [10]) is reported as > 100 µM.
In the case of `c1ccc(CN2CCNCC2)cc1` [Compound 2], the “Activity (direct activation of purified procaspase-3 in vitro)” value (shortened to “Activity”) (procaspase-3 [1]) is reported as “Inactive”.
For `NNC(=O)CN1CCN(Cc2ccccc2)CC1` [Compound 4], the “Activity” value (procaspase-3 [1]) was “Inactive”.
With `CN1CCN(CC(=O)N/N=C/c2ccccc2O)CC1` [Compound 6] the “Activity” value (procaspase-3 [1]) was “Inactive”.
In the case of `O=C(CN1CCN(Cc2ccccc2)CC1)N/N=C/c1ccccc1` [Compound 7], the “Activity” value (procaspase-3 [1]) is reported as “Inactive”.
`CC(C)(C)c1cc(/C=N/NC(=O)CN2CCN(Cc3ccccc3)CC2)c(O)c(C(C)(C)C)c1` [Compound L01R06] was tested, and the “Fold better than PAC-1” value (HL-60 cell line) was 9.7-fold and the IC50 (HL-60 cell line) was 5.63 µM.
For `C=CCc1cccc(/C=N/NC(=O)CN2CCN(Cc3ccc(C(C)(C)C)cc3)CC2)c1O` [Compound L02R03], the “Fold better than PAC-1” value (HL-60 cell line) was 12.6-fold and the IC50 (HL-60 cell line) was 4.34 µM.
In the case of `CC(C)(C)c1ccc(CN2CCN(CC(=O)N/N=C/c3cc(C(C)(C)C)cc(C(C)(C)C)c3O)CC2)cc1` [Compound L02R06], the “Fold better than PAC-1” value (HL-60 cell line) is reported as 8.4-fold and the IC50 (HL-60 cell line) is reported as 6.53 µM.
For `CC(C)(C)c1cc(/C=N/NC(=O)CN2CCN(Cc3ccc(CCc4ccccc4)cc3)CC2)c(O)c(C(C)(C)C)c1` [Compound L08R06], the “Fold better than PAC-1” value (HL-60 cell line) was 10.3-fold and the IC50 (HL-60 cell line) was 5.31 µM.
For `C=CCc1cccc(/C=N/NC(=O)CN2CCN(Cc3ccc(OCc4ccccc4)c(OCc4ccccc4)c3)CC2)c1O` [Compound L09R03], the “Fold better than PAC-1” value (HL-60 cell line) was 11.3-fold and the IC50 (HL-60 cell line) was 4.82 µM.
For `CC(C)(C)c1cc(/C=N/NC(=O)CN2CCN(Cc3ccc(OCc4ccccc4)c(OCc4ccccc4)c3)CC2)c(O)c(C(C)(C)C)c1` [Compound L09R06], the “Fold better than PAC-1” value (HL-60 cell line) was 13.1-fold and the IC50 (HL-60 cell line) was 4.17 µM.
`O=C(CN1CCN(Cc2ccc(OCc3ccccc3)c(OCc3ccccc3)c2)CC1)N/N=C/c1c(O)ccc2ccccc12` [Compound L09R08] was tested, and the “Fold better than PAC-1” value (HL-60 cell line) was 22.6-fold and the IC50 (HL-60 cell line) was 2.42 µM.
`C=CCc1cccc(/C=N/NC(=O)CN2CCC(Cc3ccccc3)CC2)c1O` [DX11] was tested, and the IC50 (HL-60 cells [3]) was 3.2 µM and the “in vitro activation of procaspase-3 (Western blot) relative to control” value (procaspase-3 [4]) was “substantial activity levels”.
For `O=C(CN1CCN(Cc2ccccc2)CC1)N/N=C/c1ccccc1O` [de-allyl PAC-1], the IC50 (HL-60 cells [3]; Homo sapiens) was 8.7 µM.
With `O=C(CN1CCN(Cc2ccccc2)CC1)N/N=C/c1ccccc1` [drawing 26] the EC50 (procaspase-3 [1]) was > 50 µM and the IC50 (HL-60 cells [2]; [10]) was > 100 µM.
For `NNC(=O)CN1CCN(Cc2ccccc2)CC1` [drawing 29], the EC50 (procaspase-3 [1]) was > 50 µM and the IC50 (HL-60 cells [2]; [10]) was > 100 µM.
With `c1ccc(CN2CCNCC2)cc1` [drawing 33] the EC50 (procaspase-3 [1]) was > 50 µM and the IC50 (HL-60 cells [2]; [10]) was > 100 µM.
With `COc1cc([C@@H]2c3cc4c(cc3[C@@H](O[C@@H]3O[C@@H]5CO[C@@H](C)O[C@H]5[C@H](O)[C@H]3O)[C@H]3COC(=O)[C@H]23)OCO4)cc(OC)c1O` [etoposide] the IC50 (SK-N-SH) was < 1 µM, the IC50 [5] was > 50 µM and the IC50 (HL-60 cells [2]; etoposide, 24 hours, read-out: IC50 for inducing death, HL-60) was < 1 µM. The IC50 [6] was > 50 µM, the IC50 [7] was > 50 µM and the IC50 (PC-12) was < 1 µM. For the same compound, the IC50 (U-937) was < 1 µM, the IC50 [8] was > 50 µM and the IC50 [9] was > 50 µM.
